Experimental data as given in patent publication US10114013B2, “Method for detection of coenzyme Q10” (Berg LLC, priority 2012, dated 2018).
Values joined by “and” are separate entries in the source; they are usually repeats but may differ in a detail not shown here. Equal entries are not always repeated.

Columns and labels:
[1] = tested on: PaCa2 cells; assay: CoQ10 level in PaCa2 cells after CoQ10 treatment; extraction with methanol alone, LC/MS/MS detection; format: in vitro ADME, human; settings: 100 μM CoQ10 in isopropanol, replicates 1-3
Protocol: (§1) To further validate the utility of the spectrophotometric method for the quantitative assessment of CoQ10 in biological samples, the experiment described above was repeated using HASMC, HepG2, and PaCa2 cell lines. Further, a second set of cell samples were prepared using each of the three cell types for analysis to determine CoQ10 levels using LC/MS/MS methods routinely used in the art. Briefly, cells were plated and treated with CoQ10 in isopropanol or the CoQ10 proprietary delivery formulation as set forth above, and harvested at 3, 6, or 24 hours after plating. Cell pellets were either extracted using the method set forth above, resuspending the cells in Buffers A and B, and extracting the CoQ10 with Buffer C, or the cell pellets were sent to a diagnostic laboratory (IriSys Research & Development Inc) for quantitative assessment of CoQ10 using extraction with methanol alone followed by LC/MS/MS detection.

[2] = tested on: HepG2 cells; assay: CoQ10 level in HepG2 cells after CoQ10 treatment; extraction with methanol alone, LC/MS/MS detection; format: in vitro ADME; settings: 100 μM CoQ10 in isopropanol, replicates 1-3
Protocol: as §1

[3] = tested on: PaCa2 cells; assay: CoQ10 level in PaCa2 cells after CoQ10 treatment; Buffer A/B/C extraction, UV spectrophotometry at 275 nm; format: in vitro ADME, human; settings: 100 μM CoQ10 in isopropanol, OD275 detection, replicates 1-3
Source text: (§2) The assay for quantitation of CoQ10 was used to determine the CoQ10 levels in various cells lines after CoQ10 treatment for various times. The cell lines used in the studies were the normal human aortic smooth muscle cells (HASMC), the hepatic cancer cell line HepG2, and the human pancreatic carcinoma cell line PaCa2. All cells lines are commercially available and were maintained according to instruction from the manufacturer/supplier of the cell lines.
In the experimental trials, about 1×10^6 HASMC, HepG2, or PaCa2 cells were plated into each well of a 6 well plate. […] Immediately after trypsinization, the cells were counted to determine the total number of viable cells in the sample. […]
The vials were incubated at 65° C. for 2 minutes in a water bath, with gentle mixing at about half way through the incubation. […] The solution was cooled to room temperature and a 75 μL aliquot of the upper phase was placed in a quartz cuvette and analyzed by UV spectrophotometry at a wavelength of 275 nm. […]
For quantitative assessment of CoQ10 in the biological samples, a standard curve was generated essentially as set forth above (Example 2). […] Each of the samples from the serial dilution was measured at a wavelength of 275 nm in a UV spectrometer and plotted on a graph.
A power series was used to fit the standard curve from the standard and an equation was determined. […]

[4] = tested on: HepG2 cells; assay: CoQ10 level in HepG2 cells after CoQ10 treatment; Buffer A/B/C extraction, UV spectrophotometry at 275 nm; format: in vitro ADME; settings: for average level of CoQ10 in cells: Hep2G cells; for CoQ10 / Conc (pM/cell): HepG2 cells, OD275 detection, replicates 1-3
Protocol: as §2
200 μl of various concentrations of CoQ10 in Buffer A, or Buffer A alone, were aliquoted into glass vials and 10 μl of Buffer B was added to each vial. Cells treated with various concentrations of CoQ10 were collected at predetermined time points and washed. Cell pellet samples (e.g., about 10^5-10^7 cells) were combined with 200 μl of Buffer A and 10 μl of Buffer B, and the cell pellets were resuspended in the buffer mixture. The sample mixture turned opaque upon mixing Buffers A and B with cells. The mixtures were transferred into glass vials.
The glass vials from step 2 were warmed to 65° C. for 1 minute. The samples turned clear upon heating, and again became opaque upon cooling to room temperature.
A 200 μl aliquot of Buffer C was added to each vial. The vials were again warmed to 65° C. The solution in the vials spontaneously partitioned into two phases, with the second extraction buffer layer (upper layer) containing substantially all of the CoQ10 material.
A 50 μl sample of the upper extraction layer was removed and analyzed on a UV spectrometer at 275 nm. The amount of CoQ10 in each sample was determined by comparison to a standard curve.
In the experimental trials, about 1×10^6 HASMC, HepG2, or PaCa2 cells were plated into each well of a 6 well plate. At the time of plating, the cells were treated with defined concentrations of CoQ10, in triplicate, in isopropanol or a proprietary CoQ10 delivery formulation for 3, 6, or 24 hours. After the defined incubation time, the cells were washed with cold TPBS (PBS with 100 mM Tris, pH 7.4), harvested by trypsinization, washed (2×) with 1 ml of TPBS, and pelleted by centrifugation at 1,500 RPM. Immediately after trypsinization, the cells were counted to determine the total number of viable cells in the sample.
Cell pellets were resuspended in 200 μL of Buffer A (first extraction buffer) and 10 μL of Buffer B (surfactant/detergent). Upon addition of Buffer B, the sample became opaque and a precipitate formed. The resuspended cells were transferred to a borosilicate vial. For control samples not containing cells, the CoQ10 containing solution was added to a glass vial and hexane was added to bring the volume to 200 μl, and 10 μl of Buffer B was then added.
The vials were incubated at 65° C. for 2 minutes in a water bath, with gentle mixing at about half way through the incubation. The sample changed from cloudy to clear during the incubation. The sample was removed from the water bath and 200 μL of Buffer C (second extraction buffer) was added to the vial. The sample partitioned into two phases, polar and non-polar. The top, non-polar, layer was clear, while a white precipitate formed the bottom of the vial. The sample was again heated at 65° C. for 1 minute with gentle mixing about half way through the incubation. The solution was cooled to room temperature and a 75 μL aliquot of the upper phase was placed in a quartz cuvette and analyzed by UV spectrophotometry at a wavelength of 275 nm. The absorption was documented.
For quantitative assessment of CoQ10 in the biological samples, a standard curve was generated essentially as set forth above (Example 2). For each independent determination of CoQ10, the standard curve was generated by making a 50 μM CoQ10 stock solution in hexane and serially diluting of the stock material. Each of the samples from the serial dilution was measured at a wavelength of 275 nm in a UV spectrometer and plotted on a graph. […]

## COC1=C(OC)C(=O)C(C/C=C(\C)CC/C=C(\C)CC/C=C(\C)CC/C=C(\C)CC/C=C(\C)CC/C=C(\C)CC/C=C(\C)CC/C=C(\C)CC/C=C(\C)CCC=C(C)C)=C(C)C1=O [CoQ10, Coenzyme Q10]
[1]
  CoQ10: 0.371 µM and 1.917 µM and 1.186 µM
  Conc (pM/cell): 0.31 pM/cell and 0.17 pM/cell and 0.12 pM/cell
[2]
  CoQ10: 2.061 µM and 1.223 µM and 1.599 µM
  Conc (pM/cell): 0.34 pM/cell and 0.24 pM/cell (2×)
[3]
  CoQ10: 28.46 µM and 12.5 µM and 4.05 µM
  Conc (pM/cell): 1.56 pM/cell and 9.09 pM/cell and 3.2 pM/cell
[4]; 50 μM in propanol, 3 hours
  average level of CoQ10 in cells: 14.40 pM/cell
[4]; 50 μM in propanol, 6 hours
  average level of CoQ10 in cells: 27.07 pM/cell
[4]; 50 μM in propanol, 24 hours
  average level of CoQ10 in cells: 37.04 pM/cell
[4]; 100 μM in propanol, 3 hours
  average level of CoQ10 in cells: 25.20 pM/cell
[4]; 100 μM in propanol, 6 hours
  average level of CoQ10 in cells: 34.74 pM/cell
[4]; 100 μM in propanol, 24 hours
  average level of CoQ10 in cells: 45.43 pM/cell
[4]; 50 μM CoQ10 in isopropanol
  CoQ10: 39.76 µM and 41.84 µM and 51.45 µM
  Conc (pM/cell): 29.6 pM/cell and 30.7 pM/cell and 51.9 pM/cell
[4]; 100 μM CoQ10 in isopropanol
  CoQ10: 36.08 µM and 49.71 µM and 50.51 µM
  Conc (pM/cell): 70.7 pM/cell and 121.2 pM/cell and 101 pM/cell
